Assay results taken from patent publication US20230265099A1, “SIK INHIBITORS AND METHODS OF USE THEREOF” (SOLTEGO, INC., priority 2020, published 2023).
Entries after “also recorded” stand apart in the source; their conditions may differ.

What was measured:
[1] = system: reconstituted melanized human epidermis (NHEKs and NHEMs-MP melanocytes); assay: Melanin content from Fontana-Masson stained sections of reconstituted melanized human epidermis; assay type: cell-based; settings: for melanin content (Fontana-Masson stained sections): % relative to DMSO 0.005%
Procedure: Based on the results of dose determination studies, 0.3 μg/ml, 0.01 μg/ml and 0.0033 μg/ml doses of SLT-008 were selected for further application in a culture medium of reconstituted melanized human epidermis. The pigmentation effect studies were carried out on epidermis reconstituted with NHEKs (Normal human epidermal keratinocytes, Lonza 00192906) isolated from foreskin of 3 neonatal Caucasian donors and NHEMs-MP melanocytes.
The tissues were cultured at the air-liquid interface in Epilife medium (Fisher Scientific, MEPI500CA) containing specific supplements (with among others Human Keratinocytes Growth Factors, Fisher Scientific S0015 or S001K) and antibiotics (Gentamycin, Fisher Scientific, 15710049). They were maintained in a humid atmosphere at 37° C. with 5% CO2.
Melanocytes were co-cultured with reconstructed epidermis and cultivated at the air-liquid interface during 14 days in culture medium in a humid atmosphere at 37° C. with CO2 5%. SLT-008 was applied in the culture medium at 3 concentrations, during 10 days, from day 4 to day 14 after placement at the air/liquid interface (n=6), with 5 medium refreshes (at day 7, 8, 9, 10 and 11). In order to allow pigmentation of the epidermis, the concentration in BPE (bovine pituitary extract) in culture medium was adapted during the treatments. DMSO at 0.005%, used for the compounds solubilization was used as reference control condition. IBMX at 150 μM and forskolin at 3.33 μM were used as pro-pigmentation reference compounds to validate the experiment. An additional DMSO control at 0.05% corresponding to the solvent of the reference compounds was added as well in the experiment.
At the end of treatments (day 14), a morphology analysis was performed. The epidermis pigmentation was quantified after solvable extraction and quantified through Fontana Masson staining of histologic sections. 6 μm sections of epidermis embedded in paraffin were prepared and stained with Fontana Masson reagents. Fontana Masson staining specifically stains melanin within the epidermis. In order to visualize the epidermis in addition to the melanin, a counterstaining with hemalum/eosin was performed as well. Tissue section staining was performed in three series with one set for each test compound. Slides with sections of epidermis treated with DMSO at 0.005% were put in each set for Fontana Masson staining in order to compare the effects of the SLT-008.
Melanin deposition on 6 μm paraffin sections of each epidermis was stained by Fontana-Masson reagents (VWR-VWRK641295, VWRK641311; Klinipath-641215). […]
For the melanin quantification, 3 pictures of each epidermis were taken and analyzed by using the Leica QWin3 software. […]
Melanin content was determined from Fontana-Masson stained sections (% relative to DMSO 0.005%). […]

SIK3(h) = SIK3(h) (Homo sapiens, UniProt Q9Y2K2); assay: Salt Induced Kinase inhibition, radiometric [γ-33P]-ATP filter assay, SIK3; assay type: biochemical
[2] = system: Primary human epidermal keratinocytes (hEK) cocultured with human epidermal melanocytes; assay: Topical application on keratinocyte/melanocyte coculture skin model, Fontana Masson staining; assay type: cell-based; settings: single topical application
Procedure: Primary human epidermal keratinocytes (hEK) were seeded onto suitable carrier matrices and cocultured with human epidermal melanocytes. SLT-8 was solubilized in PEG/Ethanol/Transcutol® at 0.3 mM, 1 mM and 3 mM and applied topically using a mesh to the surface of the models and removed after 4 hours. Test compounds were applied once daily over a period of 4 days. Untreated models and models treated with the vehicle only served as controls. UV irradiated models were used as positive controls. Fontana Masson staining was conducted to visualize pigmentation effects. Fontana-Masson staining is routinely used to visualize argentaffin substances such as melanin, argentaffin granules and some neurosecretory granules. Melanin is a nonlipid, non-hematogenous pigment. It is a brown-black pigment present normally in the hair, skin, retina, iris, and certain parts of the central nervous system. Argentaffin granules are found in carcinoid tumors. The argentaffin cell granules or melanin stain black. Nuclei stain pink-red. The cytoplasm stains pale pink.

[3] = system: human living skin explants; assay: Pigmentation activity on human living skin explants with stripping; assay type: cell-based
Procedure: The pigmentation activity of SLT-008 at two concentrations was evaluated on skin using human living skin explants with stripping.
Human skin explants of an average diameter of 11 mm (±1 mm) were prepared on an abdominoplasty from a person with a III phototype. The explants were kept alive in BEM culture medium (BIO-EC's Explants Medium) at 37° C. in a humid, 5%-CO2 atmosphere. The study was performed on human skin tissue, obtained from surgical residues in accord with the Declaration of Helsinki and the article L.1243-4 of the French Public Health Code.
On day 0, the explants of the batches “S” were stripped 5 times using scotch 3M to remove some stratum corneum layers to facilitate the penetration of the tested products. The excipient and the tested products were applied topically on the basis of 2 μl per explant (2 mg/cm^2) and spread using a small spatula on day 0 (D0, after the stripping), D1, D4, D6 and D8.
The culture medium was half renewed (1 ml per well) on D0, D1, D4, D6 and D8. On D0, D1, D4, D5, D6, D7 and D8, the culture media of the irradiated explants (TUV) were replaced by HBSS (Hank's Balanced Saline Solution; 1 ml per explant). Then, the explants of the “TUV” batch were irradiated using a UV simulator Vibert Lourmat RMX 3W with a dose of 2.25 J/cm2 of UVA corresponding to 0.5 MED (minimal erythemal dose) for a phototype II donor. […]

[4] = system: reconstituted melanized epidermis; assay: Hematoxylin/eosin (H/E) morphology of reconstituted melanized epidermis; assay type: cell-based, human; settings: 3 selected doses (0.3, 0.01, 0.0033 μg/ml) in culture medium
Procedure: Next, absence of toxicity of the three doses was evaluated in reconstituted melanized epidermis by hematoxylin/eosin (H/E) staining of histologic sections.
At the end of the treatments with the test compounds, 3 tissues per dose (n=3) were fixed in 4% formaldehyde, dehydrated and paraffin embedded. Sections of 6 μm of epidermis were stained with eosin and hematoxylin (H/E). Slides were mounted with specific medium and examined with a Leica DM2000 photomicroscope coupled to a digital camera (Zeiss).

[5] = system: melanized reconstructed human epidermis; assay: LDH release assay on melanized reconstructed human epidermis; assay type: cell-based
Procedure: Quantification of lactate dehydrogenase (LDH) release from melanized tissue was performed at mid-treatment and at the end of treatment with the SLT-008 to ensure that the selected doses were not cytotoxic for the melanized reconstructed human epidermis. The release of LDH by the culture model was assessed after 5 and 10 days of treatments with the Cytotoxicity Detection KitPLUS (Roche-04744926001) according to the manufacturer's instructions. Briefly, culture supernatants were collected and mixed with LDH detection reactants in 96-well plates for 30 min before measuring optical density at 490 nm with a reference wavelength of 600 nm using a spectrophotometer (GloMax-Promega). This was performed in triplicates of cultures (n=3). […] The effect of these concentrations was thus studied on the tissue pigmentation (FIG. 5).

reconstructed epidermis = assay: Melanin content by chemical (solvable) extraction of reconstructed epidermis; assay type: cell-based, human; settings: applied at 1 and 0.1 μg/ml and more so at 0.3 μg/ml
Procedure: Using similar methods described previously in this Example, the experiments were repeated. At the end of these treatments, tissues (n=3) were removed from their inserts and immerged in a solvable extraction solution (Perkin Elmer-NJTSRN8010060) and heated at 80° C. for 1 h. The optical density of the supernatants was measured at 490 nm with a spectrophotometer (GloMax-Promega) and the melanin content was determined by comparison with a standard curve of synthetic melanin (Sigma-M8631)

[6] = system: apoptotic cells in the epidermis of human skin explants; assay: Stripping-induced apoptosis DNA protection study, TUNEL assay on skin explants; assay type: cell-based; settings: 0.9% in absolute ethanol, after tape stripping, Day 11, significant
Text: The aim of this study was to perform complementary immunostaining of TUNEL (apoptotic cell marker).
Histological processing: 5-μm-thick sections were made using a Leica RM 2125 Minot-type microtome, and the sections were mounted on Superfrost® histological glass slides. The microscopical observations were realized using a Leica DMLB, an Olympus BX43 or BX63 microscope. Pictures were digitized with a numeric DP72 or DP74 Olympus camera with CellSens storing software.
The staining was semi-quantified by image analysis.
Image analysis method: The images analyses was performed on all the images of the selected batch using CellSens software. Stained surfaces comparisons
The stained surface percentage (Surf %) for the treatment is compared to the untreated condition=>S vs T; SP vs S.

SIK3(h), sequence (Q9Y2K2 whole entry): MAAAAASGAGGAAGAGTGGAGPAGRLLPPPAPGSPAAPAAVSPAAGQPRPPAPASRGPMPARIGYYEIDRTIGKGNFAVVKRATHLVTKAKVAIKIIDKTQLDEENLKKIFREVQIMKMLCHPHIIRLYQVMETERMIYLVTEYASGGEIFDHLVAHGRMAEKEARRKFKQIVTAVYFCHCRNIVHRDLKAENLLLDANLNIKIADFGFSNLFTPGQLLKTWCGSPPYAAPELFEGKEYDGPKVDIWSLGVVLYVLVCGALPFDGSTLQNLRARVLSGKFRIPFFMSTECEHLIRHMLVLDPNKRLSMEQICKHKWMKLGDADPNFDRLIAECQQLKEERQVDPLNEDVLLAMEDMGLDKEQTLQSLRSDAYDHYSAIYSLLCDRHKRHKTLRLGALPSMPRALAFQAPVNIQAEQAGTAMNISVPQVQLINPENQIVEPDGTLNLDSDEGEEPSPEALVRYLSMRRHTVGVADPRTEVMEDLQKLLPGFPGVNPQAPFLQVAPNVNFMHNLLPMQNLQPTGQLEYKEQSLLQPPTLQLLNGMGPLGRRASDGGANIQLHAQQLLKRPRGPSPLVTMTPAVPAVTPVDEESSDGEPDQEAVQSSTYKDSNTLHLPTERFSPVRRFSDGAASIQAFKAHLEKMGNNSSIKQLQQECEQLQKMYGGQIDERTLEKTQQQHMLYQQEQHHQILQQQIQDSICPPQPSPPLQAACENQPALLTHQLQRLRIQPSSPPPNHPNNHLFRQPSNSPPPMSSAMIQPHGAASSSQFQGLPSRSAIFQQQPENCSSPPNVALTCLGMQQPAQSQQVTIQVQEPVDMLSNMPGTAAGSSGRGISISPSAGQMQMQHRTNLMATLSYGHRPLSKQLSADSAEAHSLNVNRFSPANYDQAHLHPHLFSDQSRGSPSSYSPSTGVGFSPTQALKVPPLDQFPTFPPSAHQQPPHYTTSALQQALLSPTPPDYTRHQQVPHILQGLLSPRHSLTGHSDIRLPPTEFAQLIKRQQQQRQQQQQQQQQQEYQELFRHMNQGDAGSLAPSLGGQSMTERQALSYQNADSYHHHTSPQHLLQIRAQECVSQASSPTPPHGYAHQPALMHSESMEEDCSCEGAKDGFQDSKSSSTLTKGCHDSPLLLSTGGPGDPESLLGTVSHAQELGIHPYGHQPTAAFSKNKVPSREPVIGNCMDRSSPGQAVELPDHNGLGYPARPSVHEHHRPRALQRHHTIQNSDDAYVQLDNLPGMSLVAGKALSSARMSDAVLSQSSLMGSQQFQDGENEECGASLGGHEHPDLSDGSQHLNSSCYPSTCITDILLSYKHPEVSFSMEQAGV

| SMILES | pigmentation (Fontana-Masson) ([1]; positive controls: forskolin 3.33 μM, IBMX 150 μM, vs DMSO 0.05%) | IC50 (SIK3(h); Estimated IC50 Values, SIK3(h), ATP 45 μM) | IC50 (SIK3(h); SIK3) | melanin pigmentation (Fontana Masson staining) ([2]; 1 mM in PEG/Ethanol/Transcutol) | melanin pigmentation (Fontana Masson staining) ([2]; 3 mM in PEG/Ethanol/Transcutol) | melanin transfer to keratinocytes and nuclear capping ([2]; 3 mM) | cell viability ([3]; 0.5% and 0.9% topical, compared to the stripped batch) | melanin increase ([3]; 0.9% dose, topical, stripped explants, significant (p<0.1)) | morphologic alteration (H/E staining) [4] | LDH release from tissues ([5]; 0.3 μg/ml, after 10 days of treatment, without reaching the set cytotoxic level) | tissue integrity (LDH release) ([5]; application for 10 days) | melanin content (Fontana-Masson stained sections) ([1]; 0.011 μg/ml) | pigmentation / melanin content (Fontana-Masson) ([1]; 0.3 μg/ml vs DMSO 0.005%) | melanin content (Fontana-Masson stained sections) ([1]; 0.3 μg/ml) | melanin content by chemical extraction (reconstructed epidermis) | decrease of apoptotic cell numbers (TUNEL stained surface) [6] |
| --- | --- | --- | --- | --- | --- | --- | --- | --- | --- | --- | --- | --- | --- | --- | --- | --- |
| CC(C)Cn1c(=O)n(C)c(=O)c2[nH]cnc21 [IBMX, reference compound] | increased | – | – | – | – | – | – | – | – | – | – | – | – | – | – | – |
| Cc1cccc(C)c1N1Cc2cnc(Nc3ccc(N4CCN(C)CC4)cc3)nc2N(C23CC4CC(CC(C4)C2)C3)C1=O [SLT-008, 1-((3s,5s,7s)-adamantan-1-yl)-3-(2,6-dimethylphenyl)-7-((4-(4-methylpiperazin-1-yl)phenyl)amino)-3,4-dihydropyrimido[4,5-d]pyrimidin-2(1H)-one] | – | > 20 nM | > 20 nM | induced melanin pigment dots at the stratum lucidum level | induced melanin pigment dots at the stratum lucidum level | induced melanin transfer to keratinocytes and nuclear capping was observed | no modification of cell viability | 36% | no morphologic alteration | Slight and significant increase | did not induce relevant alteration of the tissue integrity | 125.6+/−15.4% | significantly increased; also recorded: significant increase | 129+/−5.7% | increased, with a dose effect | 97% |
